Holding throughout (assay type): functional, cell-based
One test deals with L1210. Description: Growth inhibition of mouse L1210 cells.
Another test concerns HCT-116. As to the kind of experiment: Growth inhibition of human HCT116 cells.
The subject of the next test is HCT-116/VM46. Description: Growth inhibition of human HCT116/VM46 cells.

Results on 14 compounds are retold here after ChEMBL document CHEMBL4229541, “Vinca alkaloids and analogues as anti-cancer agents: Looking back, peering ahead” (Bioorg Med Chem Lett, 2018).

For `CC[C@]1(O)C[C@@H]2CN(CCc3c([nH]c4ccccc34)[C@@](C(=O)OC)(c3cc4c(cc3OC)N(C)[C@@H]3[C@]45CCN4CC=C[C@@](C)(C[C@]3(O)C(=O)OC)[C@H]45)C2)C1`, the results for the IC50 in the test with L1210, in the test on HCT-116 and in the test on HCT-116/VM46 were 550 nM, 560 nM and 5300 nM, respectively.

In the case of `CC[C@]1(O)C[C@@H]2CN(CCc3c([nH]c4ccccc34)[C@@](C(=O)OC)(c3cc4c(cc3OC)N(C)[C@H]3[C@@](O)(C(=O)OC)[C@H](OC(C)=O)[C@]5(CC)C=CCN6CC[C@]43[C@@H]65)C2)C1` [VINBLASTINE], in the test with HCT-116/VM46, the IC50 stood at 600 nM.

As for `CC[C@]1(O)C[C@@H]2CN(CCc3c([nH]c4ccccc34)[C@@](C(=O)OC)(c3cc4c(cc3OC)N(C)[C@@H]3[C@]45CCN4CC=C[C@@H](C[C@]3(O)C(=O)OC)[C@H]45)C2)C1`, the IC50 in the test with L1210 was determined as 610 nM; with HCT-116, 400 nM; with HCT-116/VM46 it was 3500 nM.

Regarding `CC[C@]1(O)C[C@@H]2CN(CCc3c([nH]c4ccccc34)[C@@](C(=O)OC)(c3cc4c(cc3OC)N(C)[C@@H]3[C@]45CCN4CC=C[C@@](CC)(C[C@]3(O)C(=O)OC)[C@H]45)C2)C1`, the IC50 was 58000 nM in the test with L1210, 60000 nM in the test with HCT-116 and 660000 nM in the test on HCT-116/VM46.

Consider `CC[C@]1(N)C[C@@H]2CN(CCc3c([nH]c4ccccc34)[C@@](C(=O)OC)(c3cc4c(cc3OC)N(C)[C@H]3[C@@](O)(C(=O)OC)[C@H](OC(C)=O)[C@]5(CC)C=CCN6CC[C@]43[C@@H]65)C2)C1`, for which the IC50 is 640 nM in the test on L1210, 600 nM in the test on HCT-116 and greater than 10000 nM in the test on HCT-116/VM46.

In the case of `CC[C@]1(O)C[C@@H]2CN(CCc3c([nH]c4ccccc34)[C@@](C(=O)OC)(c3cc4c(cc3OC)N(C)[C@H]3[C@@](O)(C(=O)OC)[C@H](OC(C)=O)[C@]5(CC)C[C@H](O)CN6CC[C@]43[C@@H]65)C2)C1`, the IC50 was 610 nM with L1210, 630 nM in the test with HCT-116 and greater than 10000 nM with HCT-116/VM46.

Take `CC[C@]1(O)C[C@@H]2CN(CCc3c([nH]c4ccccc34)[C@@](C(=O)OC)(c3cc4c(cc3OC)N(C)[C@H]3[C@@](O)(C(=O)OC)[C@H](OC(C)=O)[C@]5(CC)C[C@@H](Cl)CN6CC[C@]43[C@@H]65)C2)C1`: the IC50 was 840 nM in the test with L1210, 710 nM in the test with HCT-116 and 8600 nM in the test with HCT-116/VM46.

For the compound `CC[C@]1(N=[N+]=[N-])C[C@@H]2CN(CCc3c([nH]c4ccccc34)[C@@](C(=O)OC)(c3cc4c(cc3OC)N(C)[C@H]3[C@@](O)(C(=O)OC)[C@H](OC(C)=O)[C@]5(CC)C=CCN6CC[C@]43[C@@H]65)C2)C1`, the IC50 worked out at 670 nM in the test with L1210, 690 nM with HCT-116 and 5500 nM in the test with HCT-116/VM46.

Turning to `CC[C@]1(N=C=S)C[C@@H]2CN(CCc3c([nH]c4ccccc34)[C@@](C(=O)OC)(c3cc4c(cc3OC)N(C)[C@H]3[C@@](O)(C(=O)OC)[C@H](OC(C)=O)[C@]5(CC)C=CCN6CC[C@]43[C@@H]65)C2)C1`, the values for the IC50 in the test with L1210, with HCT-116 and in the test on HCT-116/VM46 were 590 nM, 530 nM and 7000 nM, respectively.

For `CC[C@]1(O)C[C@@H]2CN(CCc3c([nH]c4ccccc34)[C@@](C(=O)OC)(c3cc4c(cc3OC)N(C)[C@H]3[C@@](O)(C(=O)OC)[C@H](OC(C)=O)[C@]5(CC)C[C@@H](O)CN6CC[C@]43[C@@H]65)C2)C1`, the IC50 with L1210 is 7600 nM; in the test with HCT-116, 7700 nM; in the test on HCT-116/VM46, greater than 10000 nM.

`CC[C@]1(O)C[C@@H]2CN(CCc3c([nH]c4ccccc34)[C@@](C(=O)OC)(c3cc4c(cc3OC)N(C)[C@H]3[C@]5(O)C(=O)N(C)CCC5[C@]5(CC)CCCN6CC[C@]43C65)C2)C1` (some centres undefined): the IC50 in the test on L1210 was 8400 nM; with HCT-116 it was 7900 nM; in the test with HCT-116/VM46, greater than 10000 nM.

As to `CC[C@]1(O)C[C@@H]2CN(CCc3c([nH]c4ccccc34)[C@@](C(=O)OC)(c3cc4c(cc3OC)N(C)[C@H]3[C@@](O)(C(=O)OC)[C@H](C(=O)OC)[C@]5(CC)C=CCN6CC[C@]43[C@@H]65)C2)C1`, the IC50 in the test on L1210 was 8.1 nM; in the test on HCT-116, 6.1 nM.

Regarding `CC[C@]1(O)C[C@@H]2CN(CCc3c([nH]c4ccccc34)[C@@](C(=O)OC)(c3cc4c(cc3OC)N(C)[C@H]3[C@]5(O)C(=O)N(C)CCC5[C@@H]5CCCN6CC[C@]43C56)C2)C1` (some centres undefined), the IC50 in the test on L1210 came to 570 nM; with HCT-116, 520 nM; in the test on HCT-116/VM46, 6600 nM.

On to `CC[C@]1(SC#N)C[C@@H]2CN(CCc3c([nH]c4ccccc34)[C@@](C(=O)OC)(c3cc4c(cc3OC)N(C)[C@H]3[C@@](O)(C(=O)OC)[C@H](OC(C)=O)[C@]5(CC)C=CCN6CC[C@]43[C@@H]65)C2)C1`, for which the figures for the IC50 in the test with L1210, in the test on HCT-116 and with HCT-116/VM46 were 560 nM, 550 nM and 2900 nM, respectively.

The term IC50 denotes the concentration needed to halve the response being measured.
